Experiments:
ALK = ALK (Homo sapiens, UniProt Q9UM73); details: cited from earlier work
[1] = system: pEGFR (TYR 1068), pSTAT3 (TYR 705), pAKT (SER 473), pERK1/2 (THR 202/TYR 204) in DLD1 cells; assay: Western blot of signaling in DLD1 cells; format: cell-based; details: 2 hour (BVN22E antibodies alone: 2 and 24 hour)
Experimental: The effects of BVN22E antibodies were investigated in DLD1 cells via Western Blots, see FIGS. 42 and 43.
The effect of Trametinib treatment in the DLD1 cell line was also assessed in a western blot assay and the results are presented in FIG. 45. […] Inhibition of pStat3 and pERK1/2 were observed, though only at concentrations beyond the physiological concentrations of Trametinib used in patients.
BVN22E antibodies alone inhibited phosphorylation of EGFR.

[2] = in vivo; cited from earlier work

ALK, sequence (Q9UM73 19-1620): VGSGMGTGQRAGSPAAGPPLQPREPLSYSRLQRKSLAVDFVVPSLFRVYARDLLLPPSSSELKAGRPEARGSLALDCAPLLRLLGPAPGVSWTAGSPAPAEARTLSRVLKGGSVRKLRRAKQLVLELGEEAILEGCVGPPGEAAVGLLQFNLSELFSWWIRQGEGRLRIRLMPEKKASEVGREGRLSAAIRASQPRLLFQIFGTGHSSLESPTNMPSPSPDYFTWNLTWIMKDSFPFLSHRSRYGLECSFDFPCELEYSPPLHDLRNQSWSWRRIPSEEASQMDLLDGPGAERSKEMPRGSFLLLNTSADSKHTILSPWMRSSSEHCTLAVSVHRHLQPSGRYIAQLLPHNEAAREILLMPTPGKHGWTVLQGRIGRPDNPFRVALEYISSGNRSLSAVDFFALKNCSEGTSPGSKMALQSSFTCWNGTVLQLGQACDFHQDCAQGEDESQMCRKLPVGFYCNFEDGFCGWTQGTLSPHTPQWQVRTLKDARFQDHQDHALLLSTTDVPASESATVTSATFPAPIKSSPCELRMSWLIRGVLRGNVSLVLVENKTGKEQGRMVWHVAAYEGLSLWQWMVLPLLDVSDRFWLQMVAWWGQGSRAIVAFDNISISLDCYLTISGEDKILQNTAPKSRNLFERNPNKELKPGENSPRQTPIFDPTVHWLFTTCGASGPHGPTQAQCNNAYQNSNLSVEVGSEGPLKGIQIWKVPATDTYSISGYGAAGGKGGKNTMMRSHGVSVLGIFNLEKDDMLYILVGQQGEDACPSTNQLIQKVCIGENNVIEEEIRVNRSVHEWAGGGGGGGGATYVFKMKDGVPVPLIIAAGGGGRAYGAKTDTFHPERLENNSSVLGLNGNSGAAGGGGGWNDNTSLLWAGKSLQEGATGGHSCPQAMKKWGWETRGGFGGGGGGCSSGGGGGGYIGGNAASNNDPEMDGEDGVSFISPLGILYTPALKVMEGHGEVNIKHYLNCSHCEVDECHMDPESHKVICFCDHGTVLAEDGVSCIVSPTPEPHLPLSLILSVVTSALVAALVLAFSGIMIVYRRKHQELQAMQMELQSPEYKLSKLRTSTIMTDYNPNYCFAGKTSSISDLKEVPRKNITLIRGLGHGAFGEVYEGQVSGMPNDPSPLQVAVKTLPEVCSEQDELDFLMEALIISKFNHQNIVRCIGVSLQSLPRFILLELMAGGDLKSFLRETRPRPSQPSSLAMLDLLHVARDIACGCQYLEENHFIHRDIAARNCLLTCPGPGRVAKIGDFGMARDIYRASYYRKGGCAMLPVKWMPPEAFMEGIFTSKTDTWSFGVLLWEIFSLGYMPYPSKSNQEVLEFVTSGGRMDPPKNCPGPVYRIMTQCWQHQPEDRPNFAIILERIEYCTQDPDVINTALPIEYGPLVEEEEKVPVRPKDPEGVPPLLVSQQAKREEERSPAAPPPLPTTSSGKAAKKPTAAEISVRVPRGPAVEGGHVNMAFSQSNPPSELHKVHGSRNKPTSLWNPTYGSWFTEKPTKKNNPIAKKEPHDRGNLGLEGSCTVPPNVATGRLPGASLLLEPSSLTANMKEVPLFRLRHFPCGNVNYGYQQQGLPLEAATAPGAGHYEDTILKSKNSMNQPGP

C[C@@H]1CN(C(=O)c2ccc(NC(=O)c3cc(O[C@H](C)c4c(Cl)ccc(F)c4Cl)c(N)nn3)cc2)C[C@H](C)N1 [Ensartinib]
IC50 (ALK): < 0.4 nM

Cc1cc(Nc2ncc(Cl)c(Nc3ccccc3S(=O)(=O)C(C)C)n2)c(OC(C)C)cc1C1CCNCC1 [Ceritinib]
potency for inhibiting alk compared with crizotinib (ALK; relative to crizotinib): 20 times

CC(=O)Nc1cccc(-n2c(=O)n(C3CC3)c(=O)c3c(Nc4ccc(I)cc4F)n(C)c(=O)c(C)c32)c1 [Trametinib]
pEGFR [1]: no effect

C[C@H]1Oc2cc(cnc2N)-c2c(nn(C)c2C#N)CN(C)C(=O)c2ccc(F)cc21 [Lorlatinib]
CNS penetration [2]: highly CNS-penetrant
